Measured values taken from US11377425B1, “Small molecule modulators of IL-17” (LEO Pharma A/S, priority 2018, dated 2022).

What follows are compounds tested against T1, human IL-17AA (Homo sapiens, UniProt Q16552) (assay: IL-8 release assay in human epithelial keratinocytes adult (HEKa)). Conditions: HEKa cells, 3 ng/mL HEK-human IL-17AA + 10 ng/mL human TNFalpha; read-out: Rel EC50 IL-8 release assay.
T1 construct: host or cells: HEK (human embryonic kidney) cells
T1 sequence (Q16552 24-155): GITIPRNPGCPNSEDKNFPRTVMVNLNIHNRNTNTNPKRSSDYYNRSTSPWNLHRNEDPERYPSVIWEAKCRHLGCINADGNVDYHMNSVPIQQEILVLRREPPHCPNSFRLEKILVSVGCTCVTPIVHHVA
Type: cell-based
In short: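 Adult human epidermal keratinocytes stimulated 68-72 h at 37 °C with 3 ng/mL HEK-derived human IL-17AA plus 10 ng/mL TNF-alpha (final) in the presence of compound; TNF-alpha alone defines 100% inhibition. Secreted IL-8 measured by HTRF as percent of controls; relative IC50/Emax from four-parameter fit (r^2>0.9), cytotoxicity by PrestoBlue.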
`CCc1n[nH]c(CC)c1-c1ccc(NC(=O)[C@@H](NC(=O)c2ccnn2CCCO)C(C2CC2)C2CC2)cc1` [Example 393, N-[(1S)-1-(dicyclopropylmethyl)-2-[4-(3,5-diethyl-1H-pyrazol-4-yl)anilino]-2-oxo-ethyl]-2-(3-hydroxypropyl)pyrazole-3-carboxamide] was tested, and the EC50 was under 100 nM.
`Cc1n[nH]c(C)c1-c1ccc(NC(=O)[C@@H](NC(=O)C2(C)CC2)C2CCCCC2)cc1` [Example 57, N-[(1S)-1-cyclohexyl-2-[4-(3,5-dimethyl-1H-pyrazol-4-yl)anilino]-2-oxo-ethyl]-1-methyl-cyclopropanecarboxamide] showed an EC50 of 100 to 1000 nM.
Compound `Cc1n[nH]c(C)c1-c1ccc(NC(=O)[C@@H](NC(=O)c2ccnn2C(C)C#N)C(C2CC2)C2CC2)cc1` (stereo partly drawn) [Example 171, 2-(1-cyanoethyl)-N-[(1S)-1-(dicyclopropylmethyl)-2-[4-(3,5-dimethyl-1H-pyrazol-4-yl)anilino]-2-oxo-ethyl]pyrazole-3-carboxamide] has an EC50 of over 1000 nM.
With `Cc1n[nH]c(C)c1-c1ccc(NC(=O)C(NC(=O)c2ccnn2C)C2CCc3c(F)cccc32)cc1` (single isomer, unassigned) [Example 247] the EC50 was under 100 nM.
With `Cc1n[nH]c(C)c1-c1ccc(NC(=O)[C@H](CC2CCCCC2)NC(=O)c2ccnn2C(C)C)cc1` [Example 17, N-[(1S)-1-(cyclohexylmethyl)-2-[4-(3,5-dimethyl-1H-pyrazol-4-yl)anilino]-2-oxo-ethyl]-2-isopropyl-pyrazole-3-carboxamide] the EC50 was 100 to 1000 nM.
With `Cc1n[nH]c(C)c1-c1ccc(NC(=O)[C@@H](NC(=O)c2ccnn2C(C)C)C(C)C2CCC2)cc1` (single isomer, unassigned) [Example 191] the EC50 was 100 to 1000 nM.
With `Cc1n[nH]c(C)c1-c1ccc(NC(=O)[C@@H](NC(=O)c2ccnn2C(C)CF)C(C2CC2)C2CC2)cc1` (stereo partly drawn) [Example 218, N-[(1S)-1-(dicyclopropylmethyl)-2-[4-(3,5-dimethyl-1H-pyrazol-4-yl)anilino]-2-oxo-ethyl]-2-(2-fluoro-methyl-ethyl)pyrazole-3-carboxamide] the EC50 was under 100 nM.
Work on `Cc1n[nH]c(C)c1-c1ccc(NC(=O)[C@@H](NC(=O)c2ccnn2CC(C)C)C(C2CC2)C2CC2)cc1` [Example 132, N-[(1S)-1-(dicyclopropylmethyl)-2-[4-(3,5-dimethyl-1H-pyrazol-4-yl)anilino]-2-oxo-ethyl]-2-isobutyl-pyrazole-3-carboxamide] yielded an EC50 of under 100 nM.
`Cc1n[nH]c(C)c1-c1ccc(NC(=O)[C@@H](NC(=O)c2ccnn2C(C)C)[C@H]2CCOc3c(F)cccc32)cc1` [Example 287, N-[(1S)-2-[4-(3,5-dimethyl-1H-pyrazol-4-yl)anilino]-1-[(4S)-8-fluorochroman-4-yl]-2-oxo-ethyl]-2-isopropyl-pyrazole-3-carboxamide] was tested, and the EC50 was under 100 nM.
Compound `Cc1n[nH]c(N)c1-c1ccc(NC(=O)[C@@H](NC(=O)c2ccnn2C)C2CCCCC2)cc1` [Example 449, N-[(1S)-2-[4-(3-Amino-5-methyl-1H-pyrazol-4-yl)anilino]-1-cyclohexyl-2-oxo-ethyl]-2-methyl-pyrazole-3-carboxamide] has an EC50 of 100 to 1000 nM.
`Cc1n[nH]c(C)c1-c1ccc(NC(=O)C(NC(=O)c2ccnn2C(C)C)C(C2CCC2)C2CCC2)cc1` (racemic) [Example 38, N-[1-[di(cyclobutyl)methyl]-2-[4-(3,5-dimethyl-1H-pyrazol-4-yl)anilino]-2-oxo-ethyl]-2-isopropyl-pyrazole-3-carboxamide] was tested, and the EC50 was under 100 nM.
Compound `Cc1n[nH]c(C)c1-c1ccc(NC(=O)[C@@H](NC(=O)c2cnnn2C(C)C)C2CCCCC2)cc1` [Example 75, N-[(1S)-1-cyclohexyl-2-[4-(3,5-dimethyl-1H-pyrazol-4-yl)anilino]-2-oxo-ethyl]-3-isopropyl-triazole-4-carboxamide] has an EC50 of 100 to 1000 nM.
`Cc1n[nH]c(C)c1-c1ccc(NC(=O)[C@@H](NC(=O)c2ccnn2C)[C@H]2CCCc3ccc(Br)cc32)cc1` [Example 6, N-[(1S)-1-[(1S)-7-bromotetralin-1-yl]-2-[4 (3,5-dimethyl-1H-pyrazol-4-yl)anilino]-2-oxo-ethyl]-2-methyl-pyrazole-3-carboxamide] showed an EC50 of under 100 nM.
